Earlier results as cited in patent US10945991B2, “Use and pharmaceutical composition for liver fibrosis prevention and/or treatment” (Cojet Biotech Inc., priority 2018, dated 2021).

Test system: RAW 264.7 cell line

Cc1cc(O)c2c(c1O)OCO2 [MBDD, 5-methyl-benzol[1,3]dioxole-4,7-diol]
NO production induced by lipopolysaccharide (RAW 264.7 cell line, effect may result from cytotoxicity): reduce the NO production
cytotoxicity (RAW 264.7 cells): strong cytotoxicity
